Test results published in the supplement of paper PMC10307832.

Columns and labels:
Test in all cases: relative viability (nuclei count vs DMSO), 5 days (fraction); higher = more cells survive
[1] = compound: CCOc1cc2ncc(C#N)c(Nc3ccc(OCc4ccccn4)c(Cl)c3)c2cc1NC(=O)/C=C/CN(C)C [Neratinib]
Outline: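 MetaXpress counted nuclei in 4× images of lung cancer cell lines that had been fixed, permeabilised and Hoechst-stained in one step. Before that, cells in 1536-well plates were kept overnight at 37 °C, pinned with five √10-spaced library-drug doses on vehicle-anchored plates, and cultured 5 days without medium change. Viability takes treated-well nuclei over vehicle-well nuclei and uses the median across plates. Plates were accepted only at control CV below 25% and at least one doubling.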

[2] = compound: CCOc1cc2ncc(C#N)c(Nc3ccc(OCc4ccccn4)c(Cl)c3)c2cc1NC(=O)/C=C/CN(C)C [Neratinib] + CC1(C)CCC(c2ccc(Cl)cc2)=C(CN2CCN(c3ccc(C(=O)NS(=O)(=O)c4ccc(N[C@H](CCN5CCOCC5)CSc5ccccc5)c(S(=O)(=O)C(F)(F)F)c4)cc3)CC2)C1 [Navitoclax] (partner 0.5 µM)
Outline: (§1)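 Relative viability equals treated-well nuclei counts divided by vehicle-well nuclei counts. Counts came from 4× images of lung cancer cell lines grown in 1536-well plates for 5 days after pin-tool dosing on the day after seeding. Dosing used one drug alone or a fixed anchor-drug dose plus five library-drug doses (not always all listed) in √10 steps, and values are medians of duplicate plates.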

[3] = compound: CCOc1cc2ncc(C#N)c(Nc3ccc(OCc4ccccn4)c(Cl)c3)c2cc1NC(=O)/C=C/CN(C)C [Neratinib] + COc1cc2c(Oc3ccc(NC(=O)C4(C(=O)Nc5ccc(F)cc5)CC4)cc3F)ccnc2cc1OCCCN1CCOCC1 [Foretinib] (partner 0.25 µM)
Outline: as §1

[4] = compound: CCOc1cc2ncc(C#N)c(Nc3ccc(OCc4ccccn4)c(Cl)c3)c2cc1NC(=O)/C=C/CN(C)C [Neratinib] + CS(=O)(=O)CCNCc1ccc(-c2ccc3ncnc(Nc4ccc(OCc5cccc(F)c5)c(Cl)c4)c3c2)o1 [Lapatinib] (partner 2 µM)
Outline: as §1

[5] = compound: CCOc1cc2ncc(C#N)c(Nc3ccc(OCc4ccccn4)c(Cl)c3)c2cc1NC(=O)/C=C/CN(C)C [Neratinib] + CS(=O)(=O)N1CCN(Cc2cc3nc(-c4cccc5[nH]ncc45)nc(N4CCOCC4)c3s2)CC1 [Pictilisib] (partner 1 µM)
Outline: as §1

[6] = compound: CCOc1cc2ncc(C#N)c(Nc3ccc(OCc4ccccn4)c(Cl)c3)c2cc1NC(=O)/C=C/CN(C)C [Neratinib] + C[C@@H](Oc1cc(-c2cnn(C3CCNCC3)c2)cnc1N)c1c(Cl)ccc(F)c1Cl [Crizotinib] (partner 1 µM)
Outline: as §1

[7] = compound: CCOc1cc2ncc(C#N)c(Nc3ccc(OCc4ccccn4)c(Cl)c3)c2cc1NC(=O)/C=C/CN(C)C [Neratinib] + C[C@]1(O)C[C@@H](c2nc(-c3ccc4ccc(-c5ccccc5)nc4c3)c3c(N)nccn32)C1 [Linsitinib] (partner 1 µM)
Outline: as §1

[8] = compound: CCOc1cc2ncc(C#N)c(Nc3ccc(OCc4ccccn4)c(Cl)c3)c2cc1NC(=O)/C=C/CN(C)C [Neratinib] + Cc1nc(NC(=O)N2CCC[C@H]2C(N)=O)sc1-c1ccnc(C(C)(C)C(F)(F)F)c1 [Alpelisib] (partner 2 µM)
Outline: as §1

[9] = compound: CCOc1cc2ncc(C#N)c(Nc3ccc(OCc4ccccn4)c(Cl)c3)c2cc1NC(=O)/C=C/CN(C)C [Neratinib] + N=C(N)NC(=N)NCCc1ccccc1 [Phenformin] (partner 250 µM)
Outline: as §1

[10] = compound: CCOc1cc2ncc(C#N)c(Nc3ccc(OCc4ccccn4)c(Cl)c3)c2cc1NC(=O)/C=C/CN(C)C [Neratinib] + Nc1ncn([C@H]2C[C@H](O)[C@@H](CO)O2)c(=O)n1 [Decitabine] (partner 2 µM)
Outline: as §1

[11] = compound: CCOc1cc2ncc(C#N)c(Nc3ccc(OCc4ccccn4)c(Cl)c3)c2cc1NC(=O)/C=C/CN(C)C [Neratinib] + O=C(c1cc(Cc2n[nH]c(=O)c3ccccc23)ccc1F)N1CCN(C(=O)C2CC2)CC1 [Olaparib] (partner 8 µM)
Outline: as §1

[12] = compound: CCOc1cc2ncc(C#N)c(Nc3ccc(OCc4ccccn4)c(Cl)c3)c2cc1NC(=O)/C=C/CN(C)C [Neratinib] + CC(=O)Nc1cccc(-n2c(=O)n(C3CC3)c(=O)c3c(Nc4ccc(I)cc4F)n(C)c(=O)c(C)c32)c1 [Trametinib] (partner 0.02 µM)
Outline: as §1

[13] = compound: CCOc1cc2ncc(C#N)c(Nc3ccc(OCc4ccccn4)c(Cl)c3)c2cc1NC(=O)/C=C/CN(C)C [Neratinib] + CC(=O)c1c(C)c2cnc(Nc3ccc(N4CCNCC4)cn3)nc2n(C2CCCC2)c1=O [Palbociclib] (partner 0.5 µM)
Outline: as §1

[14] = compound: CCOc1cc2ncc(C#N)c(Nc3ccc(OCc4ccccn4)c(Cl)c3)c2cc1NC(=O)/C=C/CN(C)C [Neratinib] + CCNC(=O)c1noc(-c2cc(C(C)C)c(O)cc2O)c1-c1ccc(CN2CCOCC2)cc1 [Luminespib] (partner 0.01 µM)
Outline: as §1

[15] = compound: CCOc1cc2ncc(C#N)c(Nc3ccc(OCc4ccccn4)c(Cl)c3)c2cc1NC(=O)/C=C/CN(C)C [Neratinib] + COc1cccc2cc(-c3nc([C@H]4CC[C@H](C(=O)O)CC4)n4ncnc(N)c34)[nH]c12 [OSI-027] (partner 0.5 µM)
Outline: as §1

[16] = compound: CCOc1cc2ncc(C#N)c(Nc3ccc(OCc4ccccn4)c(Cl)c3)c2cc1NC(=O)/C=C/CN(C)C [Neratinib] + Cc1cc(Nc2cc(N3CCN(C)CC3)nc(Sc3ccc(NC(=O)C4CC4)cc3)n2)n[nH]1 [Tozasertib] (partner 0.1 µM)
Outline: as §1

[17] = compound: CCOc1cc2ncc(C#N)c(Nc3ccc(OCc4ccccn4)c(Cl)c3)c2cc1NC(=O)/C=C/CN(C)C [Neratinib] + Cc1nc(Nc2ncc(C(=O)Nc3c(C)cccc3Cl)s2)cc(N2CCN(CCO)CC2)n1 [Dasatinib] (partner 0.075 µM)
Outline: as §1

[18] = compound: CCOc1cc2ncc(C#N)c(Nc3ccc(OCc4ccccn4)c(Cl)c3)c2cc1NC(=O)/C=C/CN(C)C [Neratinib] + NC(=O)Nc1cc(-c2cccc(F)c2)sc1C(=O)N[C@H]1CCCNC1 [AZD7762] (partner 0.2 µM)
Outline: as §1

[19] = compound: CCOc1cc2ncc(C#N)c(Nc3ccc(OCc4ccccn4)c(Cl)c3)c2cc1NC(=O)/C=C/CN(C)C [Neratinib] + Nc1nc2[nH]cc(CCc3ccc(C(=O)N[C@@H](CCC(=O)O)C(=O)O)cc3)c2c(=O)[nH]1 [Pemetrexed] (partner 0.2 µM)
Outline: as §1

[20] = compound: CCOc1cc2ncc(C#N)c(Nc3ccc(OCc4ccccn4)c(Cl)c3)c2cc1NC(=O)/C=C/CN(C)C [Neratinib] + O=C(CCCCCCC(=O)Nc1ccccc1)NO [Vorinostat] (partner 1 µM)
Outline: as §1

## A549
[1]; 0.01 µM
  relative viability: 1.06
[1]; 0.03162 µM
  relative viability: 1.07
[1]; 0.1 µM
  relative viability: 0.856
[1]; 0.3162 µM
  relative viability: 0.911
[1]; 1 µM
  relative viability: 0.516
[2]; first compound 0.01 µM
  relative viability: 1.42
[2]; first compound 0.03162 µM
  relative viability: 1.25
[2]; first compound 0.3162 µM
  relative viability: 1.12
[2]; first compound 1 µM
  relative viability: 0.528
[3]; first compound 0.01 µM
  relative viability: 0.969
[3]; first compound 0.03162 µM
  relative viability: 0.927
[3]; first compound 0.3162 µM
  relative viability: 0.832
[3]; first compound 1 µM
  relative viability: 0.54
[4]; first compound 0.01 µM
  relative viability: 1.09
[4]; first compound 0.03162 µM
  relative viability: 0.968
[4]; first compound 0.1 µM
  relative viability: 0.907
[4]; first compound 1 µM
  relative viability: 0.558
[5]; first compound 0.01 µM
  relative viability: 0.608
[5]; first compound 0.03162 µM
  relative viability: 0.409
[5]; first compound 0.1 µM
  relative viability: 0.526
[5]; first compound 0.3162 µM
  relative viability: 0.323
[5]; first compound 1 µM
  relative viability: 0.119
[6]; first compound 0.01 µM
  relative viability: 1
[6]; first compound 0.03162 µM
  relative viability: 0.796
[6]; first compound 0.1 µM
  relative viability: 0.713
[6]; first compound 0.3162 µM
  relative viability: 0.68
[6]; first compound 1 µM
  relative viability: 0.187
[7]; first compound 0.01 µM
  relative viability: 0.614
[7]; first compound 0.03162 µM
  relative viability: 0.547
[7]; first compound 0.1 µM
  relative viability: 0.468
[7]; first compound 0.3162 µM
  relative viability: 0.391
[7]; first compound 1 µM
  relative viability: 0.365
[8]; first compound 0.01 µM
  relative viability: 0.79
[8]; first compound 0.03162 µM
  relative viability: 0.601
[8]; first compound 0.1 µM
  relative viability: 0.458
[8]; first compound 1 µM
  relative viability: 0.291
[9]; first compound 0.01 µM
  relative viability: 0.162
[9]; first compound 0.03162 µM
  relative viability: 0.189
[9]; first compound 0.3162 µM
  relative viability: 0.137
[9]; first compound 1 µM
  relative viability: 0.191
[10]; first compound 0.01 µM
  relative viability: 0.325
[10]; first compound 0.03162 µM
  relative viability: 0.295
[10]; first compound 0.3162 µM
  relative viability: 0.264
[10]; first compound 1 µM
  relative viability: 0.318
[11]; first compound 0.01 µM
  relative viability: 0.356
[11]; first compound 0.03162 µM
  relative viability: 0.555
[11]; first compound 0.1 µM
  relative viability: 0.276
[11]; first compound 0.3162 µM
  relative viability: 0.296
[11]; first compound 1 µM
  relative viability: 0.176

## NCI-H522
[1]; 0.01 µM
  relative viability: 0.982
[1]; 0.1 µM
  relative viability: 0.876
[1]; 0.3162 µM
  relative viability: 0.692
[1]; 1 µM
  relative viability: 0.59
[12]; first compound 0.01 µM
  relative viability: 0.756
[12]; first compound 0.03162 µM
  relative viability: 0.923
[12]; first compound 0.1 µM
  relative viability: 0.758
[12]; first compound 0.3162 µM
  relative viability: 0.599
[12]; first compound 1 µM
  relative viability: 0.543
[13]; first compound 0.01 µM
  relative viability: 1.22
[13]; first compound 0.03162 µM
  relative viability: 0.759
[13]; first compound 0.1 µM
  relative viability: 0.719
[13]; first compound 0.3162 µM
  relative viability: 0.733
[13]; first compound 1 µM
  relative viability: 0.538
[14]; first compound 0.01 µM
  relative viability: 1.12
[14]; first compound 0.03162 µM
  relative viability: 1.12
[14]; first compound 0.1 µM
  relative viability: 1.09
[14]; first compound 0.3162 µM
  relative viability: 0.913
[14]; first compound 1 µM
  relative viability: 0.655
[15]; first compound 0.01 µM
  relative viability: 0.687
[15]; first compound 0.03162 µM
  relative viability: 0.702
[15]; first compound 0.1 µM
  relative viability: 0.605
[15]; first compound 0.3162 µM
  relative viability: 0.548
[15]; first compound 1 µM
  relative viability: 0.497
[16]; first compound 0.01 µM
  relative viability: 0.573
[16]; first compound 0.03162 µM
  relative viability: 0.608
[16]; first compound 0.1 µM
  relative viability: 0.571
[16]; first compound 0.3162 µM
  relative viability: 0.46
[16]; first compound 1 µM
  relative viability: 0.499
[17]; first compound 0.01 µM
  relative viability: 0.94
[17]; first compound 0.03162 µM
  relative viability: 0.809
[17]; first compound 0.1 µM
  relative viability: 0.818
[17]; first compound 0.3162 µM
  relative viability: 0.786
[17]; first compound 1 µM
  relative viability: 0.664
[9]; first compound 0.01 µM
  relative viability: 0.747
[9]; first compound 0.03162 µM
  relative viability: 0.619
[9]; first compound 0.1 µM
  relative viability: 0.663
[9]; first compound 0.3162 µM
  relative viability: 0.548
[9]; first compound 1 µM
  relative viability: 0.604
[18]; first compound 0.01 µM
  relative viability: 0.781
[18]; first compound 0.03162 µM
  relative viability: 0.844
[18]; first compound 0.1 µM
  relative viability: 0.878
[18]; first compound 0.3162 µM
  relative viability: 0.804
[18]; first compound 1 µM
  relative viability: 0.718
[19]; first compound 0.01 µM
  relative viability: 1
[19]; first compound 0.03162 µM
  relative viability: 0.943
[19]; first compound 0.1 µM
  relative viability: 0.72
[19]; first compound 0.3162 µM
  relative viability: 0.673
[19]; first compound 1 µM
  relative viability: 0.657
[10]; first compound 0.01 µM
  relative viability: 0.719
[10]; first compound 0.03162 µM
  relative viability: 0.671
[10]; first compound 0.1 µM
  relative viability: 0.711
[10]; first compound 0.3162 µM
  relative viability: 0.557
[10]; first compound 1 µM
  relative viability: 0.573
[20]; first compound 0.01 µM
  relative viability: 1.04
[20]; first compound 0.03162 µM
  relative viability: 1.01
[20]; first compound 0.1 µM
  relative viability: 0.678
[20]; first compound 0.3162 µM
  relative viability: 0.718
[20]; first compound 1 µM
  relative viability: 0.626
[11]; first compound 0.01 µM
  relative viability: 0.598
[11]; first compound 0.03162 µM
  relative viability: 0.5
[11]; first compound 0.1 µM
  relative viability: 0.558
[11]; first compound 0.3162 µM
  relative viability: 0.573
[11]; first compound 1 µM
  relative viability: 0.459
